≈ marks a conversion by molar mass, not a printed value. Read-outs that look alike come from different tables or passages of the source.
Key:
[1] = Solubility in water at 30°C of carboxyl group-containing compounds; conditions: for solubility: distilled water, 30 °C, water, thermodynamic from solid

Compound | solubility [1] | also measured
O=C(O)C1CCCCC1C(=O)O (stereo not drawn) [hexahydrophthalic acid] | 1.5 mg/mL (≈ 8.71 mM) | 
O=C(O)C1CCC(C(=O)O)C(C(=O)O)C1 (stereo not drawn) [hydrogenated trimellitic acid] |  | solubility in water (30°C) ([1]; weight of solute per 1 L of distilled water in a saturated aqueous solution at 30°C): 300 mg/mL (≈ 1390 mM)
O=C(O)/C=C\C(=O)O [maleic acid] | 800 mg/mL (≈ 6890 mM) | 
O=C(O)c1ccccc1C(=O)O [phthalic acid] | 9 mg/mL (≈ 54.2 mM) | 
O=C(O)c1ccc(C(=O)O)c(C(=O)O)c1 [trimellitic acid] | 20 mg/mL (≈ 95.2 mM) | 
tetrahydrophthalic acid |  | solubility in water (30°C): 5 mg/mL

Source: EP2599815B1, “POLYCARBOXYLIC ACID CONDENSATE, THERMOSETTING RESIN COMPOSITION, SUBSTRATE FOR MOUNTING SEMICONDUCTOR ELEMENT AND PROCESS FOR PRODUCING SAME, AND SEMICONDUCTOR DEVICE” (Hitachi Chemical Co., Ltd., priority 2010, dated 2012)
